For 15 compounds, TGI and GI50 results are on record in PubChem BioAssay (NCI).

Several values for one entry are separate records, joined by “and”; a condition that tells them apart may be missing. Identical values can stand only once.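 Dose response: 5 concentrations. Exposure: 48 h. Format: 96-well plates. Endpoint: linear interpolation; highest concentration if not reached. At the GI50, growth is halved. The concentration for full growth arrest is given as TGI.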

Some test systems named below: NCI-H460 lung; HCT-116 colon; OVCAR-8 ovarian; M14 melanoma; HCT-15 colon; SNB-75 CNS; OVCAR-5 ovarian; MALME-3M melanoma; CCRF-CEM leukemia; SN12C renal.
Common to all, as to experiment: NCI anticancer screen, dose series, 48 h

Consider `CCN1CCC(O)(c2ccc(Cl)c(Cl)c2)C(C(=O)c2ccc(Cl)c(Cl)c2)C1` (centres undefined), for which the TGI was 43.6 µM in the test on NCI-H460 lung; 32.4 µM with HCT-116 colon; 41 µM with OVCAR-8 ovarian; 30.9 µM with M14 melanoma; 36.6 µM in the test with HCT-15 colon; 28.5 µM in the test with SNB-75 CNS. The TGI with OVCAR-5 ovarian came to 35.7 µM; in the test with MALME-3M melanoma it was 33.6 µM; in the test on CCRF-CEM leukemia it was 36.6 µM; in the test with SN12C renal, 35 µM.
In the case of `c1ccc([P+](CCC[P+](c2ccccc2)(c2ccccc2)c2ccccc2)(c2ccccc2)c2ccccc2)cc1`, the GI50 was 9.03 µM in the test with NCI-H460 lung; 7.27 µM with HCT-116 colon; 10.5 µM with OVCAR-8 ovarian; 27.6 µM in the test with M14 melanoma; above 100 µM in the test with HCT-15 colon; 4.56 µM in the test on SNB-75 CNS. In addition, the GI50 was 34 µM with OVCAR-5 ovarian, 7.26 µM in the test on CCRF-CEM leukemia and 19.6 µM in the test with SN12C renal. Also, the TGI in the test on NCI-H460 lung is above 100 µM; in the test on HCT-116 colon, above 100 µM; with OVCAR-8 ovarian, above 100 µM; in the test on M14 melanoma, above 100 µM; in the test on HCT-15 colon it was above 100 µM; in the test with SNB-75 CNS, 86 µM and 67.6 µM. In addition, the TGI with OVCAR-5 ovarian, in the test on MALME-3M melanoma, in the test with CCRF-CEM leukemia and in the test with SN12C renal was above 100 µM throughout.
Regarding `c1cc(-c2cnn3nc(N4CCOCC4)ccc23)nc(NC2CC2)n1`, the GI50 in the test with NCI-H460 lung is 6.61 µM; in the test on HCT-116 colon it was 7.55 µM; in the test with OVCAR-8 ovarian, 7.9 µM; with M14 melanoma, 9.04 µM; with HCT-15 colon, 8.66 µM; in the test on SNB-75 CNS it was 5.99 µM. Further, the GI50 in the test on OVCAR-5 ovarian is 6.64 µM; in the test with MALME-3M melanoma it was 12.1 µM; in the test on CCRF-CEM leukemia it was 4.95 µM; in the test on SN12C renal it was 8.83 µM. Further, the TGI with NCI-H460 lung is above 25 µM; in the test on HCT-116 colon, 24.6 µM; in the test with OVCAR-8 ovarian, above 25 µM; in the test on M14 melanoma, above 25 µM; with HCT-15 colon, above 25 µM; with SNB-75 CNS it was 18.6 µM. Also, the TGI was above 22.4 µM with OVCAR-5 ovarian, above 25 µM with MALME-3M melanoma, above 25 µM in the test with CCRF-CEM leukemia and above 25 µM with SN12C renal.
With `C#CCOc1cccc(Nc2ncnc3c2ncn3C2CCN(C(=O)CCl)C2)c1` (centres undefined), the GI50 with NCI-H460 lung was 43.2 µM; in the test with HCT-116 colon, 22.7 µM; with OVCAR-8 ovarian, 30.7 µM; in the test with M14 melanoma it was 16.9 µM; in the test with HCT-15 colon, 16.5 µM; in the test with SNB-75 CNS it was 34.1 µM. Further, the GI50 in the test with OVCAR-5 ovarian is 16.8 µM; in the test on MALME-3M melanoma, 12.3 µM; in the test with CCRF-CEM leukemia, 4.18 µM; in the test with SN12C renal it was 15.4 µM. Besides, the TGI with NCI-H460 lung was above 100 µM; with HCT-116 colon it was 59.8 µM; in the test with OVCAR-8 ovarian it was above 100 µM; in the test on M14 melanoma, 48.5 µM; with HCT-15 colon, 39.6 µM; in the test with SNB-75 CNS, above 100 µM. Further, the TGI with OVCAR-5 ovarian stood at 31.6 µM; in the test with MALME-3M melanoma it was 28.1 µM; in the test with CCRF-CEM leukemia, 26.3 µM; in the test on SN12C renal it was 35.5 µM.
Take `COc1cc2c(cc1-c1c(C)noc1C)ncc1[nH]c(=O)n([C@H](C)c3ccccn3)c12`: the GI50 in the test with NCI-H460 lung is 11.2 µM; in the test with HCT-116 colon, 1.94 µM; with OVCAR-8 ovarian it was 3.54 µM; in the test on M14 melanoma, 3.19 µM; in the test with HCT-15 colon, 0.807 µM; in the test with SNB-75 CNS it was below 0.0379 µM. Besides, the GI50 with OVCAR-5 ovarian was 22.4 µM; with MALME-3M melanoma, 1.05 µM; in the test with CCRF-CEM leukemia it was 1.03 µM; with SN12C renal, 4.48 µM. The TGI in the test on NCI-H460 lung is above 100 µM; in the test with HCT-116 colon it was above 100 µM; in the test on OVCAR-8 ovarian, above 100 µM; in the test with M14 melanoma, above 100 µM; in the test with HCT-15 colon it was above 100 µM; with SNB-75 CNS, above 43.7 µM. The TGI is above 100 µM in the test on OVCAR-5 ovarian, 76.2 µM in the test with MALME-3M melanoma, above 100 µM with CCRF-CEM leukemia and above 100 µM in the test on SN12C renal.
For the compound `Cn1c2cc(Cl)ccc2c2ccc3c(c21)C(=O)C=CC3=O`, the TGI is above 100 µM with NCI-H460 lung; above 53.7 µM with HCT-116 colon; above 100 µM in the test on OVCAR-8 ovarian; above 64 µM in the test with M14 melanoma; above 57.5 µM in the test with HCT-15 colon; above 100 µM with SNB-75 CNS. Further, the TGI in the test on OVCAR-5 ovarian is above 100 µM; in the test on MALME-3M melanoma, 33.4 µM; in the test on CCRF-CEM leukemia, 31.4 µM; in the test on SN12C renal it was 21.2 µM.
Consider `CN(C)C(=S)/N=c1\ssc(=S)n1Cc1ccccn1`, for which the TGI in the test on NCI-H460 lung is 16.8 µM; in the test on HCT-116 colon, above 100 µM; in the test with OVCAR-8 ovarian, above 100 µM; in the test with M14 melanoma, above 48.2 µM; in the test on HCT-15 colon it was above 100 µM; with SNB-75 CNS, above 56.6 µM. For the same compound, the TGI with OVCAR-5 ovarian was above 100 µM; in the test on MALME-3M melanoma it was 22.7 µM; in the test with CCRF-CEM leukemia, above 26.2 µM; in the test on SN12C renal it was above 100 µM.
In the case of `CN(C)NC(=S)NC12CC3CC(CC(C3)C1)C2`, the TGI in the test on NCI-H460 lung, in the test with HCT-116 colon, with OVCAR-8 ovarian, with M14 melanoma, in the test on HCT-15 colon and in the test with SNB-75 CNS was above 100 µM each time. In addition, the TGI in the test on OVCAR-5 ovarian, in the test on MALME-3M melanoma, in the test with CCRF-CEM leukemia and in the test with SN12C renal was above 100 µM throughout.
With `CC(=O)OC1C/C(C)=C/[C@H](O)CC(C)/C=C/[C@@]2(C)CCC(C(C)(C)O)C12` (some centres undefined), the TGI in the test with NCI-H460 lung, in the test with HCT-116 colon, in the test on OVCAR-8 ovarian, in the test with M14 melanoma, with HCT-15 colon and with SNB-75 CNS was above 100 µM throughout. The TGI in the test on OVCAR-5 ovarian, in the test with MALME-3M melanoma, with CCRF-CEM leukemia and in the test on SN12C renal was above 100 µM throughout.
With `CCCCCCCCCCCCOC(=S)NC`, the TGI is 34 µM in the test on NCI-H460 lung; 30.8 µM with HCT-116 colon; 32.9 µM with OVCAR-8 ovarian; 37.1 µM in the test on M14 melanoma; 32.5 µM in the test with HCT-15 colon; 74.6 µM with SNB-75 CNS. The TGI in the test on OVCAR-5 ovarian is 25.3 µM; in the test with MALME-3M melanoma, 39.6 µM; in the test on CCRF-CEM leukemia it was above 100 µM; in the test on SN12C renal, 31.7 µM.
Consider `Oc1cccc2nc3cc(CN4CCOCC4)c(CN4CCOCC4)cc3nc12`, for which the TGI in the test on NCI-H460 lung was above 100 µM; in the test with HCT-116 colon, above 100 µM; with OVCAR-8 ovarian it was above 100 µM; in the test with M14 melanoma, 38.9 µM; in the test on HCT-15 colon, above 100 µM; in the test on SNB-75 CNS it was above 100 µM. Moreover, the TGI with OVCAR-5 ovarian, in the test with MALME-3M melanoma, with CCRF-CEM leukemia and in the test on SN12C renal was above 100 µM in each case.
Consider `Cc1[nH]ccc2cc3nc4ccccc4c3cc12`, for which the GI50 with NCI-H460 lung was 1.39 µM; in the test on HCT-116 colon, 0.667 µM; in the test with OVCAR-8 ovarian, 1.72 µM; in the test with M14 melanoma, 2.47 µM; with HCT-15 colon, 1.84 µM; in the test on SNB-75 CNS, 5.52 µM. In addition, the GI50 in the test with OVCAR-5 ovarian is 3.35 µM; with MALME-3M melanoma it was 2.27 µM; in the test with CCRF-CEM leukemia, 1.5 µM; in the test with SN12C renal, 2.55 µM. In addition, the TGI in the test on NCI-H460 lung was determined as 3.52 µM; in the test on HCT-116 colon it was 2.38 µM; with OVCAR-8 ovarian, 11.7 µM; with M14 melanoma, 11.1 µM; with HCT-15 colon it was 5.9 µM; with SNB-75 CNS, 18.9 µM. The TGI in the test with OVCAR-5 ovarian stood at 11.9 µM; in the test with MALME-3M melanoma, 7.94 µM; in the test with CCRF-CEM leukemia it was 10 µM; with SN12C renal it was 12.5 µM.
As for `Cn1c(=O)c2[nH]cnc2n(CC(=O)O)c1=O`, the TGI in the test with NCI-H460 lung, in the test with HCT-116 colon, with OVCAR-8 ovarian, with M14 melanoma, with HCT-15 colon and with SNB-75 CNS was above 100 µM each time. Moreover, the TGI in the test with OVCAR-5 ovarian, with MALME-3M melanoma, in the test on CCRF-CEM leukemia and in the test with SN12C renal was above 100 µM each time.
Consider `COC(=O)C(C(=O)C(=O)Nc1ccc(C)cc1C)c1nc2ccc([N+](=O)[O-])cc2[nH]c1=O` (centres undefined), for which the TGI in the test with NCI-H460 lung, in the test on HCT-116 colon, in the test on OVCAR-8 ovarian, in the test on M14 melanoma, with HCT-15 colon and with SNB-75 CNS was above 100 µM in each case. In addition, the TGI with OVCAR-5 ovarian, in the test with MALME-3M melanoma, in the test with CCRF-CEM leukemia and with SN12C renal was above 100 µM throughout.
In the case of `COC(=O)NN=C1C(C)(C)C(=NNC(=O)OC)C1(C)C`, the TGI is above 100 µM with NCI-H460 lung; above 62.5 µM in the test on HCT-116 colon; above 55.9 µM with OVCAR-8 ovarian; above 100 µM with M14 melanoma; above 100 µM with HCT-15 colon; above 100 µM with SNB-75 CNS. Moreover, the TGI in the test with OVCAR-5 ovarian is above 100 µM; with MALME-3M melanoma it was above 100 µM; in the test on CCRF-CEM leukemia, above 72.3 µM; in the test with SN12C renal, above 100 µM.
